Tested on: P. falciparum 3D7 growth, pLDH absorbance
Assay: P. falciparum 3D7 growth inhibition, dose response, strain 3D7 (AID 2305)

SMILES	IC50
O[C@@H](c1ccccc1)[C@@H]1CN(Cc2ccccc2)CC[C@@]1(O)c1ccccc1	850 nM
c1cc(-c2ccc(CN3CCN(c4ccncc4)CC3)cc2)cc(-c2nc3ccccc3[nH]2)c1	140 nM
Cc1cccc2[nH]c(-c3cccc(-c4ccc(NC(=O)NCc5ccccc5)cc4)c3)nc12	230 nM
Cc1c(CN2CCC(N3CCC(C(=O)NC4CC4)CC3)CC2)[nH]c2c(Cl)cccc12	1190 nM
CCN(CCCN1CCCCC1)c1cc(C)nc(Nc2ccc(C)c(Cl)c2)n1	210 nM
COc1ccc(NC(=O)C2c3ccccc3C(=O)N(C3CCCC3)C2c2cccs2)c(OC)c1 (stereo not given)	1480 nM
COc1cccc(CNc2ncc(-c3ccsc3)c(-c3nccs3)n2)c1	420 nM
OCCN1CCN(Cc2cccc(-c3cccc(-c4nc5ccc(F)cc5[nH]4)c3)c2)CC1	710 nM
Cc1ccccc1Oc1nc2ccccc2nc1SCC(=O)NC(C)C	200 nM
CNC(=O)C1Cc2c([nH]c3c(C)cccc23)C2(N1)C(=O)Nc1ccc(OC(F)(F)F)cc12 (stereo not given)	460 nM
CC(C)n1nc(C(=O)N2CCN(c3ccccc3)CC2)c2ccccc2c1=O	980 nM
CNC(=O)c1ccccc1Nc1nc(Nc2ccc(N3CCN(C)CC3)nc2)ncc1C	1140 nM
Cc1[nH]c2ccccc2c(=O)c1-c1ccc(Cl)cc1	1000 nM
Cc1nnsc1C(=O)Nc1cccc(-c2cccc(-c3nc4ccc(C(F)(F)F)cc4[nH]3)c2)c1	240 nM
N#Cc1ccc(N2C[C@@H](OCc3ccccc3)C[C@H]2C(=O)NCCC(c2ccccc2)c2ccccc2)c2ccccc12	860 nM
Cn1nc2ccc3ccccc3c2nc1=N	770 nM
COc1ccc(CCNc2nc(SCc3ccccc3Cl)nc3ccccc23)cc1OC	940 nM
COc1ccc2nccc([C@@H](O)CN3CCC(NC(=O)/C=C/c4cccc(C)c4)CC3)c2c1	1250 nM
CN1CCC[C@@H](Oc2cc3c(cc2Br)CCN3C(=O)Nc2ccc(-c3ccncc3)c(Cl)c2)C1	620 nM
COc1ccc(-c2ccc(NC(=O)c3ccc(Cl)cc3)cc2)cc1CN1CCC(O)CC1	1090 nM
CN(C)c1ccc(-c2csc(C(=O)NC3CCN(Cc4ccc(C(C)(C)C)cc4)C3)c2)cc1 (stereo not given)	950 nM
CNCCNCc1cccc(-c2ccc(-c3nc4ccccc4[nH]3)cc2)c1	740 nM
CC(Nc1ccc2c(c1)CCC2)C(=O)Nc1cc(C(F)(F)F)ccc1N1CCOCC1 (stereo not given)	90 nM
CC(=O)Nc1ccc(OCCCCN(Cc2ccccc2C(F)(F)F)c2ccc(C(F)(F)F)c(C#N)c2)c(Cl)c1	550 nM
O=C1CN(C(=O)CCC2CCCC2)C(c2ccc(F)cc2)c2cc(F)ccc2N1 (stereo not given)	170 nM

SMILES	IC50
Cc1ccc(Cn2ncc(N3C[C@@H](C)N[C@@H](C)C3)c(Cl)c2=O)cc1NC(=O)Nc1ccc(-c2ccccc2)cc1	740 nM
Nc1ncnc2c1ncn2C(CO)Cc1ccc(O)cc1 (stereo not given)	1030 nM
Cc1ccc(NC(=O)Nc2ccc(Cl)cc2)cc1-c1ccc(C(=O)Nc2ccncc2)cc1	530 nM
CCCCNc1c(CC)c(C)c(C#N)c2nc3ccccc3n12	380 nM
COc1ccc(Cn2c(Nc3cccc(C(F)(F)F)c3)nc3cc(C(=O)NCCCN(C)C)ccc32)cc1Cl	910 nM
Cc1cc(NN=CC=Cc2ccccc2)c2ccc(F)cc2n1	590 nM
CCCC(=O)Nc1ccc(Cl)c(NC(=O)COc2cc(C)ccc2C(C)C)c1	930 nM
CN(Cc1cnc2nc(N)nc(N)c2n1)c1ccc(C(=O)N[C@H](CCC(=O)O)C(=O)O)cc1	100 nM
Nc1cc(-c2cc3c(OCc4ccccc4)cccc3[nH]2)ccn1	1190 nM
COc1cc2ncnc(Nc3ccc(OCc4ccccc4Br)c(Cl)c3)c2cc1OC	1280 nM
COc1ccc(C=NNc2ccnc3ccccc23)c2ccccc12	700 nM
CC1CCN(c2nc(C(=O)NCCc3ccc(Cl)c(Cl)c3)c(C(C)C)s2)CC1	1930 nM
C[C@@H](N)C#Cc1cc2c(Nc3ccc(OCc4cccc(F)c4)c(Cl)c3)ncnc2s1	1060 nM
COc1cc(C)nc2ccc(NC(=O)Nc3ccc4nc(C)cc(OC)c4c3)cc12	550 nM
Nc1ncc(-c2ccc(F)cc2)c2ccc(-c3cccc(F)c3)cc12	230 nM
CCN(CC)S(=O)(=O)c1ccc(C(C)NC(=O)c2ccccc2COc2ccccc2)cc1 (stereo not given)	330 nM
O=C(Nc1cc(F)cc(F)c1)N1CCOC(CCN2CCC(c3ccccc3)CC2)(c2ccc(Cl)c(Cl)c2)C1 (stereo not given)	470 nM
Nc1ncnc2occ(-c3ccc(NC(=O)Nc4cc(C(F)(F)F)ccc4F)cc3)c12	1720 nM
CCCCNCc1ccc(-c2nc(CN(CCCn3ccnc3)C(=O)C3COc4ccccc4O3)cs2)cc1 (stereo not given)	890 nM
Cc1noc(C)c1-c1cccc(CNCc2ccc(-c3ccc(-c4nc5ccccc5[nH]4)s3)cc2)c1	560 nM
Cc1ccc(CC(C)NCC(O)c2cccc(Cl)c2)cc1F (stereo not given)	740 nM
Cc1cc(N(C)C)nc(Nc2ccc(NC(=O)C(C)Oc3ccccc3)cc2)n1 (stereo not given)	950 nM
COc1ccc2cc(C(=O)Nc3ccc4c(c3)CCN(C3CCC3)CC4)ccc2c1	840 nM
CCN(CC(C)O)C(=O)c1ccc(-c2cccc(-c3nc4c(C)cccc4[nH]3)c2)cc1 (stereo not given)	640 nM
CCCCCCSc1nnc(COc2cccc3ccccc23)n1-c1ccc(OC)cc1	50 nM

Source: PubChem BioAssay AID2305 (GlaxoSmithKline (GSK), 2010)
